These results are taken from ChEMBL document CHEMBL1125174, “Conformationally restricted polysubstituted biphenyl derivatives with angiotensin II receptors antagonist properties” (J Med Chem, 1991).

For this assay, the species on record is Oryctolagus cuniculus. The assay is described as follows: The compound was tested for antagonism of AII-induced contraction of rabbit aorta rings. The assay is classed as functional. The conditions noted are these: read-out: pA2 (converted).

As for `CCCCc1nc(CO)c(Cl)n1Cc1cc(OC)c(-c2ccccc2C(=O)O)c(OC)c1`, the Kb was 3160 nM.

In the case of `CCCCc1nc(Cl)c(CO)n1Cc1ccc(-c2ccccc2C(=O)O)cc1`, the Kb is 79.4 nM.
